Experiment [1] addresses T1, Cholecystokinin receptor type A (Rattus norvegicus, UniProt P30551).
T1 sequence (P30551 whole entry): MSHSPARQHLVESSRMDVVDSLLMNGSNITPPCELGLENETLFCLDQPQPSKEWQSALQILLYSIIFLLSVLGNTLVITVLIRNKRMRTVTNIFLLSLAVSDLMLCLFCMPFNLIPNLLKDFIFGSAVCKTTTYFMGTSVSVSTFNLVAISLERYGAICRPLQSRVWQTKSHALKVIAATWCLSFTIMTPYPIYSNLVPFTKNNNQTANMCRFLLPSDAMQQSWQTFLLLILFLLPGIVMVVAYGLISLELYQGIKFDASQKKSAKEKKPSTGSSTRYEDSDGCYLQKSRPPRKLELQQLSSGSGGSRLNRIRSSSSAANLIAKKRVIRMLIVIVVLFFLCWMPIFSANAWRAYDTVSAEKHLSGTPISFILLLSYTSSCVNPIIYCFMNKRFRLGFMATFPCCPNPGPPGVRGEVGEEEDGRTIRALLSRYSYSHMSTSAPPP
In words: Inhibition of specific binding of [125 I] Bolton Hunter CCK-8 to Cholecystokinin type A receptor in the rat pancreas.

Experiment [2] deals with T2, Gastrin/cholecystokinin type B receptor (Mus musculus, UniProt P56481).
T2 sequence (P56481 whole entry): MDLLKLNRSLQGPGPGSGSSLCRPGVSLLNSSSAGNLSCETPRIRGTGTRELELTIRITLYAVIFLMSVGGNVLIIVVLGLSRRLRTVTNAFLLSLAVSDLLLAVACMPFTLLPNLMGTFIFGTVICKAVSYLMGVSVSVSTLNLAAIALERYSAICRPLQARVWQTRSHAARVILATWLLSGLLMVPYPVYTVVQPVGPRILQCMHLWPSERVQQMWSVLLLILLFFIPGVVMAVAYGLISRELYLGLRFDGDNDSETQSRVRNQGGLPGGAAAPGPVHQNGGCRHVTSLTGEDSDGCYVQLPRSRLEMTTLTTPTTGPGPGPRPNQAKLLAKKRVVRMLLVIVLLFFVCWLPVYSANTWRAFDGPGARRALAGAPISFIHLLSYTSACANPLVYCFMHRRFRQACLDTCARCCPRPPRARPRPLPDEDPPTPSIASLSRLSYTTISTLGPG
In words: Inhibition of [125 I]CCK-8 binding to Cholecystokinin type B receptor of mouse cerebral cortex. Format: tissue-based.

The target of experiment [3] is T3, Gastrin/cholecystokinin type B receptor (Mus musculus) (UniProt P56481).
T3 sequence (whole entry): T2 sequence (P56481 whole entry)
In words: Binding activity.

Consider `CC(C)Oc1cccc(-n2c(NC(=O)Nc3ccc(Br)cc3)nc3ccccc3c2=O)c1`, for which the half-inhibitory concentration (IC50) in experiment [1] and in experiment [2] was above 1000 nM each time.
`CC(C)Oc1cccc(-n2c(CNC(=O)Nc3ccc([N+](=O)[O-])cc3)nc3ccccc3c2=O)c1`: the IC50 in experiment [1] was found to be 385 nM; in experiment [2] it was 212 nM.
As to `CCOC(=O)c1cccc(NC(=O)NCc2nc3ccccc3c(=O)n2-c2cccc(OC(C)C)c2)c1`, the Ke in experiment [3] worked out at 230 nM. In addition, the IC50 in experiment [1] was found to be 1470 nM; in experiment [2], 126 nM.
As for `CC(C)Oc1cccc(-n2c(CCNC(=O)Nc3ccc(Br)cc3)nc3ccccc3c2=O)c1`, the IC50 stood at 1630 nM in experiment [1] and 585 nM in experiment [2].
With `CC(C)Oc1cccc(-n2c(CNC(=O)NCc3ccc(Br)cc3)nc3ccccc3c2=O)c1`, the 50% inhibitory concentration (IC50) in experiment [1] worked out at 3100 nM; in experiment [2], 652 nM.
As for `Cc1ccc(S(=O)(=O)NC(=O)NCc2nc3ccccc3c(=O)n2-c2cccc(OC(C)C)c2)cc1`, the concentration for half-maximal inhibition (IC50) in experiment [1] and in experiment [2] was above 1000 nM each time.
As to `Cc1cccc(NC(=O)NCc2nc3ccccc3c(=O)n2-c2cccc(OC(C)C)c2)c1`, the IC50 in experiment [1] turned out to be 1640 nM; in experiment [2], 879 nM.
For `CC(C)Oc1cccc(-n2c(CNC(=S)Nc3ccc(Br)cc3)nc3ccccc3c2=O)c1`, the concentration for half-maximal inhibition (IC50) in experiment [1] turned out to be 6930 nM; in experiment [2], 8020 nM.
In the case of `CC(C)Oc1cccc(-n2c(CNC(=O)Nc3ccc(C(F)(F)F)cc3)nc3ccccc3c2=O)c1`, the concentration for half-maximal inhibition (IC50) stood at 674 nM in experiment [1] and 691 nM in experiment [2].
In experiment [3], `CC(C)Oc1cccc(-n2c(CNC(=O)Nc3ccc(Br)cc3)nc3ccccc3c2=O)c1` yielded a Ke of 1300 nM. Further, the IC50 in experiment [1] came out at 984 nM; in experiment [2], 137 nM.

The term IC50 denotes the concentration needed to halve the response being measured.

The values above are taken from ChEMBL document CHEMBL1129889, “Design and synthesis of novel nonpeptide CCK-B receptor antagonists” (Bioorg Med Chem Lett, 1997).
